Laboratory results: PubChem BioAssay (NCI)
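Values below derive from 48-hour exposures of cells grown in 96-well plates, with endpoints linearly interpolated between the two concentrations bracketing the appropriate inhibition level. TGI: total growth inhibition.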

Legend:
Assay in all cases: NCI anticancer screen, dose series, 48 h
[1] = tested on: M14 melanoma
[2] = tested on: SF-295 CNS
[3] = tested on: SK-OV-3 ovarian
[4] = tested on: MCF7 breast
[5] = tested on: SF-539 CNS
[6] = tested on: IGROV1 ovarian
[7] = tested on: COLO 205 colon
[8] = tested on: CCRF-CEM leukemia

Compound: Cc1[nH]c(=O)c2oc3cc4ccccc4cc3c2c1C(=O)O
- TGI [1]: > 10 µM
- TGI [2]: > 10 µM
- TGI [3]: > 10 µM
- TGI [4]: > 10 µM
- TGI [5]: > 10 µM
- TGI [6]: > 10 µM

Compound: N#CCc1nc(-c2cc3ccccc3oc2=O)cs1
- TGI [1]: > 100 µM
- TGI [2]: > 100 µM
- TGI [7]: > 100 µM
- TGI [3]: > 100 µM
- TGI [4]: > 100 µM
- TGI [5]: > 100 µM
- TGI [6]: > 100 µM
- TGI [8]: > 100 µM

Compound: Cc1nc2ccc(S(=O)(=O)O)cc2c(=O)n1-c1ccc(C(=O)NN2C(=O)C(Cl)C2c2cccs2)cc1 (configuration not stated)
- TGI [1]: 41.4 µM
- TGI [2]: > 100 µM
- TGI [7]: > 100 µM
- TGI [3]: > 100 µM
- TGI [4]: > 100 µM
- TGI [5]: > 100 µM
- TGI [8]: > 100 µM

Compound: C(=C\c1cc[n+](CCc2ccccc2)cc1)/c1ccccc1
- TGI [1]: 31.5 µM
- TGI [2]: > 100 µM
- TGI [7]: 25.6 µM
- TGI [3]: > 100 µM
- TGI [4]: > 100 µM
- TGI [5]: 50.5 µM
- TGI [6]: > 100 µM
- TGI [8]: 42.5 µM

Compound: N#CC1=C(S)N(C2OC(CO)C(O)C(O)C2O)C(c2ccccc2)=CC1c1ccco1 (configuration not stated)
- TGI [1]: > 100 µM
- TGI [2]: > 100 µM
- TGI [4]: > 100 µM
- TGI [5]: > 100 µM
- TGI [6]: > 100 µM
- TGI [8]: > 100 µM

Compound: O=C1/C(=C/c2ccc(Br)s2)NC(=S)N1CN1CCCCC1
- TGI [2]: 91.2 µM
- TGI [7]: 37.2 µM
- TGI [4]: 57.8 µM
- TGI [6]: > 100 µM

Compound: O=C(c1c(F)c(F)c(F)c(F)c1F)n1c(=S)n(C(=O)c2c(F)c(F)c(F)c(F)c2F)c2ccccc21
- TGI [1]: > 100 µM
- TGI [2]: > 100 µM
- TGI [7]: > 100 µM
- TGI [3]: > 100 µM
- TGI [4]: > 100 µM
- TGI [5]: > 100 µM
- TGI [6]: > 100 µM
- TGI [8]: 49.9 µM

Compound: CC(C)(C)n1c(=O)n2c(-c3ccccc3)c(-c3ccccc3)n2c1=O
- TGI [1]: > 100 µM
- TGI [2]: > 100 µM
- TGI [7]: > 100 µM
- TGI [3]: > 100 µM
- TGI [4]: > 100 µM
- TGI [5]: > 100 µM
- TGI [6]: > 100 µM

Compound: Nc1nccc(NCC2(CO)CC(CCc3ccccc3)C2)n1 (configuration not stated)
- TGI [2]: 26.4 µM
- TGI [7]: 29.5 µM
- TGI [4]: 22.2 µM
- TGI [5]: 32.1 µM
- TGI [6]: 33.3 µM
- TGI [8]: 55.5 µM

Compound: COC(=O)C1=C(OC)C(=P2(c3ccccc3)CC(c3ccccc3)=C2c2ccccc2)C(C(=O)OC)=C1C(=O)OC (configuration not stated)
- TGI [1]: > 100 µM
- TGI [2]: > 100 µM
- TGI [7]: > 50.5 µM
- TGI [3]: > 100 µM
- TGI [4]: > 82.6 µM
- TGI [5]: > 95.5 µM
- TGI [6]: > 100 µM
- TGI [8]: 4.74 µM

Compound: CN(Cc1cccc2ccsc12)/N=C\c1ccc(Cl)cc1
- TGI [1]: > 100 µM
- TGI [2]: > 100 µM
- TGI [7]: > 100 µM
- TGI [3]: > 100 µM
- TGI [4]: > 100 µM
- TGI [6]: > 100 µM
- TGI [8]: > 100 µM

Compound: Cc1nc2ccc(N=Nc3c(C)noc3C)cc2[nH]1
- TGI [1]: > 100 µM
- TGI [2]: > 100 µM
- TGI [7]: 34.5 µM
- TGI [3]: 56.7 µM
- TGI [4]: 84 µM
- TGI [5]: 70.7 µM
- TGI [6]: 34.3 µM
- TGI [8]: > 100 µM

Compound: COc1ccc(NC(=S)c2ccc([N+](=O)[O-])o2)cc1
- TGI [1]: 7.28 µM
- TGI [2]: 10.6 µM
- TGI [7]: 2.75 µM
- TGI [3]: 25.7 µM
- TGI [4]: 4.42 µM
- TGI [5]: 0.549 µM
- TGI [6]: 8.56 µM
- TGI [8]: 8.66 µM

Compound: CC(C)C(=O)Cc1ccc2ccccc2n1
- TGI [1]: > 100 µM
- TGI [2]: > 100 µM
- TGI [7]: > 100 µM
- TGI [3]: > 100 µM
- TGI [4]: > 100 µM
- TGI [6]: > 100 µM
- TGI [8]: > 100 µM

Compound: CS(=O)(=O)CCC1CCC(=O)O1 (configuration not stated)
- TGI [1]: > 100 µM
- TGI [2]: > 100 µM
- TGI [4]: > 100 µM
- TGI [5]: > 100 µM
- TGI [6]: > 100 µM

Compound: N/C(=N\N=C\c1nc2ccccc2o1)c1cnccn1
- TGI [1]: > 100 µM
- TGI [2]: > 100 µM
- TGI [7]: > 100 µM
- TGI [3]: > 100 µM
- TGI [4]: > 100 µM
- TGI [5]: > 100 µM
- TGI [6]: > 100 µM
- TGI [8]: > 100 µM

Compound: CCCCCCCCCCCCCCCCOP(=O)([O-])OCC[N+](C)(C)C1CC(C)(C)N(O)C(C)(C)C1
- TGI [1]: > 100 µM
- TGI [2]: > 100 µM
- TGI [7]: > 100 µM
- TGI [3]: > 100 µM
- TGI [4]: > 100 µM
- TGI [5]: > 100 µM

Compound: COC(=O)[C@@H]1Cc2ccc(OC)c(c2)OCCC(=O)N1
- TGI [1]: > 100 µM
- TGI [2]: > 100 µM
- TGI [7]: > 100 µM
- TGI [3]: > 100 µM
- TGI [4]: > 100 µM
- TGI [6]: > 100 µM
- TGI [8]: > 100 µM

Compound: Cc1nc2ccccc2n1Cc1nnc(-c2ccccc2)o1
- TGI [1]: > 100 µM
- TGI [2]: > 100 µM
- TGI [7]: > 100 µM
- TGI [3]: > 100 µM
- TGI [4]: > 100 µM
- TGI [5]: > 100 µM
- TGI [6]: > 100 µM
- TGI [8]: > 100 µM

Compound: COc1ccc(OC)c(/C=C2/C(=O)N=C(NC(C)=O)N2C)c1
- TGI [1]: > 100 µM
- TGI [2]: > 100 µM
- TGI [7]: > 100 µM
- TGI [3]: > 100 µM
- TGI [4]: > 100 µM
- TGI [5]: > 100 µM
- TGI [6]: > 100 µM
- TGI [8]: > 100 µM

Compound: O[C@@H]1[C@H](OC2c3ccccc3-c3ccccc32)[C@H](OCc2ccccc2)[C@@H]2OC[C@H]1O2
- TGI [1]: > 100 µM
- TGI [2]: > 100 µM
- TGI [7]: > 100 µM
- TGI [4]: > 100 µM
- TGI [5]: 81.7 µM
- TGI [6]: > 100 µM
- TGI [8]: > 100 µM

Compound: COC(=O)/C=C1\C(CO[Si](C)(C)C(C)(C)C)OC(n2ccc(=O)[nH]c2=O)C1O (configuration not stated)
- TGI [1]: 49.2 µM
- TGI [2]: > 100 µM
- TGI [7]: 10.3 µM
- TGI [4]: 31.4 µM
- TGI [5]: 30.2 µM
- TGI [6]: > 75.2 µM
- TGI [8]: 26.1 µM

Compound: CCOC(=O)c1cn(-c2ccc([N+](=O)[O-])cc2)c(=S)n2c1nc1ccccc12
- TGI [1]: > 100 µM
- TGI [2]: > 100 µM
- TGI [7]: 48.5 µM
- TGI [4]: > 100 µM
- TGI [5]: > 100 µM
- TGI [6]: > 100 µM
- TGI [8]: > 100 µM

Compound: C=CCN(c1cc(O)c2c(c(C)cn2S(=O)(=O)c2ccccc2)c1[N+](=O)[O-])S(C)(=O)=O
- TGI [1]: > 100 µM
- TGI [2]: > 100 µM
- TGI [7]: > 100 µM
- TGI [3]: > 100 µM
- TGI [4]: > 100 µM
- TGI [5]: > 100 µM
- TGI [6]: > 100 µM
- TGI [8]: > 100 µM

Compound: CC(C)=CCC[C@@H](C)C1=C(N)C(O)=C(C)C(=O)C1=O
- TGI [1]: > 75 µM
- TGI [2]: > 75 µM
- TGI [7]: > 67.9 µM
- TGI [3]: > 75 µM
- TGI [4]: > 75 µM
- TGI [5]: > 75 µM
- TGI [6]: > 75 µM
- TGI [8]: > 70.9 µM

Compound: N#CCC(=O)N/N=C\C(O)C(O)C(O)C(O)CO (configuration not stated)
- TGI [1]: > 100 µM
- TGI [2]: > 100 µM
- TGI [3]: > 100 µM
- TGI [4]: > 100 µM
- TGI [5]: > 100 µM
- TGI [6]: > 100 µM
- TGI [8]: > 100 µM

Compound: NC1=C(c2nc(-c3ccccc3)cs2)C(c2ccco2)c2c(c3ccccc3oc2=O)O1 (configuration not stated)
- TGI [1]: > 100 µM
- TGI [2]: > 100 µM
- TGI [7]: > 100 µM
- TGI [3]: > 100 µM
- TGI [4]: > 100 µM
- TGI [5]: > 100 µM
- TGI [6]: > 100 µM
- TGI [8]: > 100 µM
